Experimental data from patent US20150105252A1, “SUBSTITUTED PYRAZOLES AS HERBICIDES” (E I DU PONT DE NEMOURS AND COMPANY, priority 2013, published 2015).

Assays:
bromegrass, downy = assay: Test D preemergence; type: in vivo, Bromus tectorum; conditions: for Plant response rating, Bromegrass, Downy: Preemergence, scale 0 to 100
Procedure, shortened: (§1)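 Whole-plant herbicidal activity; pre- and postemergence sprays. Soil: silt loam (pre); peat/vermiculite medium (post, 1–4 leaf). Assessment: 14–21 days, visual, 0 = no effect, 100 = complete control.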

sedge, umbrella = assay: Test C flooded paddy test; type: in vivo, Cyperus difformis; conditions: Flood
Procedure, shortened: (§2)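 Compound was added to standing water 3 cm above soil, flood maintained, and plants held in a greenhouse before visual scoring against controls at 13 to 15 days.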

foxtail, green = assay: Test D preemergence; type: in vivo, Setaria viridis; conditions: for Plant response rating, Foxtail, Green: Preemergence, scale 0 to 100
Procedure, shortened: as §1

barnyardgrass = assay: Test C flooded paddy test; type: in vivo, Echinochloa crus-galli; conditions: Flood
Procedure, shortened: as §2

speedwell = assay: Test D postemergence; type: in vivo, Veronica persica; conditions: scale 0 to 100
Procedure, shortened: as §1

wheat, spring = assay: Test D preemergence; type: in vivo, Triticum aestivum; conditions: for Plant response rating, Wheat, Spring: Preemergence, scale 0 to 100
Procedure, shortened: as §1

wheat, winter = assay: Test D preemergence; type: in vivo, Triticum aestivum; conditions: for Plant response rating, Wheat, Winter: Preemergence, scale 0 to 100
Procedure, shortened: as §1

oilseed rape = assay: Test D preemergence; type: in vivo, Brassica napus; conditions: for Plant response rating, Oilseed Rape: Preemergence, scale 0 to 100
Procedure, shortened: as §1

chickweed [1] = assay: Test D postemergence; type: in vivo, Stellaria media; conditions: scale 0 to 100
Procedure, shortened: as §1

pigweed = assay: Test D postemergence; type: in vivo, Amaranthus retroflexus; conditions: scale 0 to 100
Procedure, shortened: as §1

bluegrass = assay: Test D postemergence; type: in vivo, Poa annua; conditions: scale 0 to 100
Procedure, shortened: as §1

blackgrass [2] = assay: Test D postemergence; type: in vivo, Alopecurus myosuroides; conditions: scale 0 to 100
Procedure, shortened: as §1

rice = assay: Test C flooded paddy test; type: in vivo, Oryza sativa; conditions: Flood
Procedure, shortened: as §2

ducksalad = assay: Test C flooded paddy test; type: in vivo, Heteranthera limosa; conditions: Flood
Procedure, shortened: as §2

deadnettle [3] = assay: Test D preemergence; type: in vivo, Lamium amplexicaule; conditions: for Plant response rating, Deadnettle: Preemergence, scale 0 to 100
Procedure, shortened: as §1

blackgrass [4] = assay: Test D preemergence; type: in vivo, Alopecurus myosuroides; conditions: for Plant response rating, Blackgrass: Preemergence, scale 0 to 100
Procedure, shortened: as §1

chickweed [5] = assay: Test D preemergence; type: in vivo, Stellaria media; conditions: for Plant response rating, Chickweed: Preemergence, scale 0 to 100
Procedure, shortened: as §1

deadnettle [6] = assay: Test D postemergence; type: in vivo, Lamium amplexicaule; conditions: scale 0 to 100
Procedure, shortened: as §1

radish, wild = assay: Test D preemergence; type: in vivo, Raphanus raphanistrum; conditions: for Plant response rating, Radish, Wild: Preemergence, scale 0 to 100
Procedure, shortened: as §1

[7] = 16 g ai/ha, taken as preemergence
[8] = 31 g ai/ha, scale 0 to 100 (0 no effect, 100 complete control)
[9] = 62 g ai/ha, scale 0 to 100 (0 no effect, 100 complete control)

## O=C(NC1CC1)c1cc(CCF)n(Cc2ccnc(C(F)(F)F)c2)n1 [Compound 176]
bromegrass, downy; [7]
  Plant response rating (scale 0 to 100), Bromegrass, Downy: 0
bromegrass, downy; 31 g ai/ha
  Plant response rating, Bromegrass, Downy: 0
bromegrass, downy; 62 g ai/ha
  Plant response rating, Bromegrass, Downy: 15
bromegrass, downy; 125 g ai/ha
  Plant response rating, Bromegrass, Downy: 25
sedge, umbrella; [8]
  Plant response rating, Sedge, Umbrella: 0
sedge, umbrella; [9]
  Plant response rating, Sedge, Umbrella: 40
sedge, umbrella; 125 g ai/ha, scale 0 to 100
  Plant response rating, Sedge, Umbrella: 95
sedge, umbrella; 250 g ai/ha, scale 0 to 100
  Plant response rating, Sedge, Umbrella: 100
foxtail, green; [7]
  Plant response rating (scale 0 to 100), Foxtail, Green: 0
foxtail, green; 62 g ai/ha
  Plant response rating, Foxtail, Green: 15
foxtail, green; 125 g ai/ha
  Plant response rating, Foxtail, Green: 40
barnyardgrass; [8]
  Plant response rating, Barnyardgrass: 0
barnyardgrass; [9]
  Plant response rating, Barnyardgrass: 0
barnyardgrass; 125 g ai/ha, scale 0 to 100
  Plant response rating, Barnyardgrass: 20
barnyardgrass; 250 g ai/ha, scale 0 to 100
  Plant response rating, Barnyardgrass: 10
speedwell; Postemergence, 16 g ai/ha
  Plant response rating, Speedwell: 50
speedwell; Postemergence, 31 g ai/ha
  Speedwell plant response rating: 70
speedwell; Postemergence, 125 g ai/ha
  Speedwell plant response rating: 70
speedwell; postemergence, 62 g ai/ha
  Speedwell plant response rating: 70
wheat, spring; [7]
  Plant response rating (scale 0 to 100), Wheat, Spring: 0
wheat, spring; 62 g ai/ha
  Plant response rating, Wheat, Spring: 0
wheat, spring; 125 g ai/ha
  Plant response rating, Wheat, Spring: 5
wheat, winter; [7]
  Plant response rating (scale 0 to 100), Wheat, Winter: 0
wheat, winter; 62 g ai/ha
  Plant response rating, Wheat, Winter: 0
wheat, winter; 125 g ai/ha
  Plant response rating, Wheat, Winter: 5
Oilseed rape; [7]
  Plant response rating (scale 0 to 100), Oilseed Rape: 0
Oilseed rape; 62 g ai/ha
  Plant response rating, Oilseed Rape: 35
Oilseed rape; 125 g ai/ha
  Plant response rating, Oilseed Rape: 65
Chickweed [1]; Postemergence, 16 g ai/ha
  Plant response rating, Chickweed: 20
Chickweed [1]; Postemergence, 31 g ai/ha
  Chickweed plant response rating: 35
Chickweed [1]; Postemergence, 125 g ai/ha
  Chickweed plant response rating: 65
Chickweed [1]; postemergence, 62 g ai/ha
  Chickweed plant response rating: 35
pigweed; Postemergence, 16 g ai/ha
  Plant response rating, Pigweed: 55
pigweed; Postemergence, 31 g ai/ha
  Pigweed plant response rating: 65
pigweed; Postemergence, 125 g ai/ha
  Pigweed plant response rating: 70
pigweed; postemergence, 62 g ai/ha
  Pigweed plant response rating: 65
bluegrass; Postemergence, 16 g ai/ha
  Plant response rating, Bluegrass: 5
bluegrass; Postemergence, 31 g ai/ha
  Bluegrass plant response rating: 15
bluegrass; Postemergence, 125 g ai/ha
  Bluegrass plant response rating: 25
bluegrass; postemergence, 62 g ai/ha
  Bluegrass plant response rating: 15
Blackgrass [2]; Postemergence, 16 g ai/ha
  Plant response rating, Blackgrass: 5
Blackgrass [2]; Postemergence, 31 g ai/ha
  Blackgrass plant response rating: 15
Blackgrass [2]; Postemergence, 125 g ai/ha
  Blackgrass plant response rating: 20
Blackgrass [2]; postemergence, 62 g ai/ha
  Blackgrass plant response rating: 15
rice; [8]
  Plant response rating, Rice: 0
rice; [9]
  Plant response rating, Rice: 0
rice; 125 g ai/ha, scale 0 to 100
  Plant response rating, Rice: 20
rice; 250 g ai/ha, scale 0 to 100
  Plant response rating, Rice: 20
ducksalad; [8]
  Plant response rating, Ducksalad: 0
ducksalad; [9]
  Plant response rating, Ducksalad: 70
ducksalad; 125 g ai/ha, scale 0 to 100
  Plant response rating, Ducksalad: 95
ducksalad; 250 g ai/ha, scale 0 to 100
  Plant response rating, Ducksalad: 100
Deadnettle [3]; [7]
  Plant response rating (scale 0 to 100), Deadnettle: 0
Deadnettle [3]; 31 g ai/ha
  Plant response rating, Deadnettle: 20
Deadnettle [3]; 62 g ai/ha
  Plant response rating, Deadnettle: 80
Deadnettle [3]; 125 g ai/ha
  Plant response rating, Deadnettle: 100
Blackgrass [4]; [7]
  Plant response rating (scale 0 to 100), Blackgrass: 0
Blackgrass [4]; 31 g ai/ha
  Plant response rating, Blackgrass: 0
Blackgrass [4]; 62 g ai/ha
  Plant response rating, Blackgrass: 10
Blackgrass [4]; 125 g ai/ha
  Plant response rating, Blackgrass: 20
Chickweed [5]; [7]
  Plant response rating (scale 0 to 100), Chickweed: 10
Chickweed [5]; 31 g ai/ha
  Plant response rating, Chickweed: 50
Chickweed [5]; 62 g ai/ha
  Plant response rating, Chickweed: 85
Chickweed [5]; 125 g ai/ha
  Plant response rating, Chickweed: 100
Deadnettle [6]; Postemergence, 16 g ai/ha
  Plant response rating, Deadnettle: 10
Deadnettle [6]; Postemergence, 31 g ai/ha
  Deadnettle plant response rating: 35
Deadnettle [6]; Postemergence, 125 g ai/ha
  Deadnettle plant response rating: 45
Deadnettle [6]; postemergence, 62 g ai/ha
  Deadnettle plant response rating: 35
radish, wild; [7]
  Plant response rating (scale 0 to 100), Radish, Wild: 15
radish, wild; 62 g ai/ha
  Plant response rating, Radish, Wild: 75
radish, wild; 125 g ai/ha
  Plant response rating, Radish, Wild: 100
